A value given as a limit tells only on which side of the number the result lay.

T1 sequence (O60674 828-1132): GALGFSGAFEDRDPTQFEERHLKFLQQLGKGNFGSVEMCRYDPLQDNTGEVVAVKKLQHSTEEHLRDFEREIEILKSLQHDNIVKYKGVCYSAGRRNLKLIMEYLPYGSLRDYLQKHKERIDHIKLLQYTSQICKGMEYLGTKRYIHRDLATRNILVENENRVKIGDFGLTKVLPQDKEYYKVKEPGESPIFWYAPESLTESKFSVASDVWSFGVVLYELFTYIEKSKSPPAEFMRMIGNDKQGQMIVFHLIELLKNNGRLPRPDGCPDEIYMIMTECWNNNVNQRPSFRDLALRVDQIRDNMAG

This test concerns the target T1, human JAK2 (Homo sapiens, UniProt O60674).
T1 construct: JAK2 (a.a. 828-1132); His tag (N); made in house; host or cells: insect cells (baculovirus)
As to the kind of experiment: In vitro JAK kinase assay (HTRF, phosphorylation of biotinylated peptide). The test is classed as biochemical. Particulars: catalytic domain a.a. 828-1132, 30 μM ATP, 500 nM peptide, room temperature 1 hr; read-out: JAK-2 IC50. An outline of the steps:
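His-tagged human JAK2 catalytic domain (a.a. 828-1132), baculovirus/insect-cell expressed; phosphorylation of 500 nM biotinylated peptide at 30 μM ATP in 50 mM Tris pH 7.8, 100 mM NaCl, 5 mM DTT, 0.01% BSA. 1 h at room temperature, EDTA stop, HTRF read (Eu-Py20/SA-APC); IC50.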
(TR-FRET usually uses a lanthanide donor and a delayed reading to cut background.)
For the compound `N#CCC(C1CCCC1)n1cc(-c2ccnc(Nc3ccc(NC(=O)CN4CCOCC4)cc3)n2)cn1` (racemic) [Example 207, N-(4-(4-(1-(2-cyano-1-cyclopentylethyl)-1H-pyrazol-4-yl)pyrimidin-2-ylamino)phenyl)-2-morpholinoacetamide], the half-inhibitory concentration (IC50) is below 100 nM. With `N#CCC(C1CCCC1)n1cc(-c2ccnc(Nc3ccc(NC(=O)CNCC4CCOCC4)cc3)n2)cn1` (racemic) [Example 208, N-(4-(4-(1-(2-cyano-1-cyclopentylethyl)-1H-pyrazol-4-yl)pyrimidin-2-ylamino)phenyl)-2-((tetrahydro-2H-pyran-4-yl)methylamino)acetamide], the IC50 was below 100 nM. For the compound `N#CCC(C1CCCC1)n1cc(-c2ccnc(Nc3ccc(NC(=O)CNCC4CC4)cc3)n2)cn1` (racemic) [Example 210, N-(4-(4-(1-(2-cyano-1-cyclopentylethyl)-1H-pyrazol-4-yl)pyrimidin-2-ylamino)phenyl)-2-(cyclopropylmethylamino)acetamide], the IC50 is below 100 nM. Consider `N#CCC(C1CCCC1)n1cc(-c2ccnc(Nc3ccc(C(=O)N4CCOCC4)cc3)n2)cn1` (racemic) [Example 213, 3-cyclopentyl-3-(4-(2-(4-(morpholine-4-carbonyl)phenylamino)pyrimidin-4-yl)-1H-pyrazol-1-yl)propanenitrile], for which the IC50 was below 100 nM.

For the compound `N#CCC(C1CCCC1)n1cc(-c2ccnc(Nc3ccc(C(=O)NCC4CCOCC4)cc3)n2)cn1` (racemic) [Example 214, 4-(4-(1-(2-cyano-1-cyclopentylethyl)-1H-pyrazol-4-yl)pyrimidin-2-ylamino)-N-((tetrahydro-2H-pyran-4-yl)methyl)benzamide], the 50% inhibitory concentration (IC50) is below 100 nM. Turning to `N#CCC(C1CCCC1)n1cc(-c2ccnc(Nc3ccc(C(=O)N4[C@@H]5CC[C@H]4C[C@@H](O)C5)cc3)n2)cn1` (mixture of isomers) [Example 215, 3-cyclopentyl-3-(4-(2-(4-((3-endo)-3-hydroxy-8-azabicyclo[3.2.1]octane-8-carbonyl)phenylamino)pyrimidin-4-yl)-1H-pyrazol-1-yl)propanenitrile], the IC50 is below 100 nM. Turning to `N#CCC(C1CCCC1)n1cc(-c2ccnc(Nc3ccc(C(=O)N4C5CC6CC4CC(C5)O6)cc3)n2)cn1` (racemic) [Example 216, 3-cyclopentyl-3-(4-(2-(4-(2-oxa-6-azatricyclo[3.3.1.1(3,7)]dec-6-ylcarbonyl)phenyl)aminopyrimidin-4-yl)-1H-pyrazol-1-yl)propanenitrile], the IC50 was below 100 nM.

With `CN(C(=O)c1ccc(Nc2nccc(-c3cnn(C(CC#N)C4CCCC4)c3)n2)cc1)[C@H]1CC[C@@H](O)CC1` (mixture of isomers) [Example 217, 4-(4-(1-(2-cyano-1-cyclopentylethyl)-1H-pyrazol-4-yl)pyrimidin-2-ylamino)-N-(cis-4-hydroxycyclohexyl)-N-methylbenzamide], the 50% inhibitory concentration (IC50) was below 100 nM.

Take `CN(C(=O)c1ccc(Nc2nccc(-c3cnn(C(CC#N)C4CCCC4)c3)n2)cc1)C1CCOCC1` (racemic) [Example 218, 4-(4-(1-(2-cyano-1-cyclopentylethyl)-1H-pyrazol-4-yl)pyrimidin-2-ylamino)-N-methyl-N-(tetrahydro-2H-pyran-4-yl)benzamide]: the IC50 was below 100 nM. As to `COC1CCN(C(=O)c2ccc(Nc3nccc(-c4cnn(C(CC#N)C5CCCC5)c4)n3)cc2)CC1` (racemic) [Example 221, 3-cyclopentyl-3-(4-(2-(4-(4-methoxypiperidine-1-carbonyl)phenylamino)pyrimidin-4-yl)-1H-pyrazol-1-yl)propanenitrile], the half-inhibitory concentration (IC50) is below 100 nM. With `N#CCC(C1CCCC1)n1cc(-c2ccnc(Nc3ccc(C(=O)N[C@H]4CC[C@@H](O)CC4)cc3)n2)cn1` (mixture of isomers) [Example 223, 4-(4-(1-(2-cyano-1-cyclopentylethyl)-1H-pyrazol-4-yl)pyrimidin-2-ylamino)-N-(cis-4-hydroxycyclohexyl)benzamide], the IC50 is below 100 nM.

Broadly, the IC50 is the concentration at which inhibition is half-maximal.

Source of the values: patent US8309718B2, “4-pyrazolyl-N-arylpyrimidin-2-amines and 4-pyrazolyl-N-heteroarylpyrimidin-2-amines as janus kinase inhibitors” (Incyte Corporation, priority 2007, dated 2012).
